Test results: article PMC12127288, “Engineering of antimicrobial peptide Brevinin-1pl: arginine, lysine, and histidine substitutions enhance antimicrobial-anticancer efficacy with reduced cytotoxicity” (Frontiers in Chemistry, 2025)
Values after ≈ are worked out from the molar mass of the structure shown. Positions of bridges follow the written chain, without caps; N, C: chain ends. Residues, ends and D or L forms follow the SMILES beside them.

What was measured:
E. faecium 12697 = format: cell-based, Enterococcus faecalis NCTC 12697 (E. faecium 12697); conditions: 12697, 18 h
Experimental: (§1) The minimal inhibitory concentration (MIC) and minimal bactericidal concentration (MBC) values of the peptides were determined by established protocols to evaluate their antimicrobial activities ([Lin et al., 2021]). The MIC value was the lowest concentration of a peptide that inhibits visible bacterial growth after incubating 18 h (CLSI standard). Once the MIC values were determined, an aliquot from the bacterial culture exposed to the peptide at or above its MIC value was inoculated on a Mueller Hinton agar (MHA) and was incubated at 37 for 18 h (CLSI standard). The MBC value was the lowest concentration of a peptide that kills 99.9% of bacteria. Antimicrobial activities of synthetic peptides were assessed by determination of MIC and MBC values using eight kinds of bacteria and yeast: Gram-positive bacteria, Staphylococcus aureus ATCC 6538 (S. aureus 6538), Methicillin-resistant Staphylococcus aureus NCTC 12493 (MRSA 12493), and Enterococcus faecalis NCTC 12697 (E. faecium 12697); Gram-negative bacteria, Escherichia coli ATCC 8739 (E. coli 8739), Pseudomonas aeruginosa ATCC CRM 9027 (P. aeruginosa 9027), Klebsiella pneumoniae ATCC 43816 (K. pneumoniae 43816), and Acinetobacter baumannii BAA 747 (A. baumannii 747); and pathogenic yeast, Candida albicans ATCC 10231 (C. albicans 10231).

[1] = test system: Candida albicans ATCC 10231; format: cell-based; conditions: ATCC 10231, 18 h
Experimental: as §1

[2] = test system: Escherichia coli ATCC 8739; format: cell-based; conditions: ATCC 8739, 18 h
Experimental: as §1

[3] = test system: Pseudomonas aeruginosa ATCC CRM 9027; format: cell-based; conditions: ATCC CRM 9027, 18 h
Experimental: as §1

[4] = test system: Methicillin-resistant Staphylococcus aureus NCTC 12493; format: cell-based; conditions: NCTC 12493, 18 h
Experimental: as §1

[5] = test system: Staphylococcus aureus ATCC 6538; format: cell-based; conditions: ATCC 6538, 18 h
Experimental: as §1

[6] = test system: Acinetobacter baumannii BAA 747; format: cell-based; conditions: BAA 747, 18 h
Experimental: as §1

[7] = test system: Klebsiella pneumoniae ATCC 43816; format: cell-based; conditions: ATCC 43816, 18 h
Experimental: as §1

HaCaT cells = format: cell-based, human
Experimental: Lung cancer cell line, H838 (ATCC, United States), breast cancer cell line, MCF7 (ATCC, United States), and human immortalized keratinocytes, HaCat (Caltag Medsystems, United Kingdom), were used in this experiment to test the anti-proliferation activity of peptides brevine-1pl and its four analogues. H838 cells were maintained in RPMI-1640 medium (Gibco, United Kingdom), whereas MCF-7 and HaCaT cells were cultured in DMEM medium (Gibco, United Kingdom), supplemented with 10% (v/v) fetal bovine serum (FBS, Gibco, United Kingdom) and 1% (v/v) penicillin-streptomycin (PS, Gibco, United Kingdom). Cells were seeded in 96-well plates at densities of 8,000 cells/well for H838 and MCF-7 and 10,000 cells/well for HaCaT, followed by overnight incubation at 37°C under 5% CO2 to allow adherence. Following attachment, cells were exposed to peptide solutions at final concentrations ranging from 10^–4 M to 10^–9 M. After 22 h of treatment, 0.5 mg/ml MTT solution was added to each well and incubated at 37°C for 4 h. The medium was then aspirated, and 100 μl of DMSO was added to solubilize formazan crystals. Plates were agitated for 15 min in a shaking incubator, and absorbance was measured at 570 nm using a Synergy HT microplate reader. […] Cell viability (%) was calculated using the formula: Viability (%) = (ODtreated − ODblank)/(ODcontrol− ODblank) *100. […]

horse erythrocytes = format: cell-based
Experimental: The hemolytic activity of the peptides was assessed using horse erythrocytes. Horse erythrocytes were selected due to their similarity to human erythrocytes in membrane composition and widespread use in AMP studies for standardization. Following a previously established protocol ([Gao et al., 2016]). Peptide solutions with final concentrations ranging from 1 µM to 128 µM were incubated with 2% horse erythrocytes at 37°C for 2 h. Triton X-100 (1%) served as the positive control, while sterile PBS was used as the blank control. After that, the peptide-horse erythrocytes mixture was centrifuged at 930 g for 10 min, and the absorbance at 570 nm of the supernatant was measured. The hemolysis rate was calculated using the formal: Percentage Hemolysis = (Absorbance of sample − Absorbance of blank)/(Absorbance of Positive- Absorbance of Blank) × 100%

Row | SMILES | MIC (E. faecium 12697) [µM] | MIC [1] [µM] | MIC [2] [µM] | MIC [3] [µM] | MIC [4] [µM] | MIC [5] [µM] | MIC [6] [µM] | MIC [7] [µM] | MBC (E. faecium 12697) [µM] | MBC [1] [µM] | MBC [2] [µM] | MBC [3] [µM] | MBC [4] | MBC [5] [µM] | MBC [6] [µM] | MBC [7] [µM] | Cytotoxicity toward normal HaCaT cells (in words) (HaCaT cells) | Hemolytic activity at 16 μM (in words) (horse erythrocytes)
1 | CC[C@H](C)[C@H](NC(=O)[C@H](CCCNC(=N)N)NC(=O)[C@H](CCCNC(=N)N)NC(=O)[C@H](CC(C)C)NC(=O)[C@@H](NC(=O)[C@H](CCCNC(=N)N)NC(=O)[C@H](C)NC(=O)[C@H](C)NC(=O)[C@@H](NC(=O)CNC(=O)[C@H](C)NC(=O)[C@@H](NC(=O)[C@@H](NC(=O)[C@@H]1CCCN1C(=O)[C@H](Cc1ccccc1)NC(=O)[C@@H](N)Cc1ccccc1)[C@@H](C)CC)C(C)C)C(C)C)C(C)C)C(=O)N[C@@H](Cc1ccccc1)C(=O)N[C@H]1CSSC[C@@H](C(=O)O)NC(=O)[C@H](CCCNC(=N)N)NC(=O)[C@H](CCCNC(=N)N)NC(=O)[C@H](CO)NC(=O)[C@H]([C@@H](C)CC)NC(=O)[C@H]([C@@H](C)O)NC1=O [brevinin-1pl-5R] (H-FFPIVAGVAARVLRRIFCTISRRC-OH; disulfide 18-24) | 2 (≈ 5.5 µg/mL) | > 128 | 8 (≈ 22 µg/mL) | 16 (≈ 44 µg/mL) | 2 (≈ 5.5 µg/mL) | 2 (≈ 5.5 µg/mL) | 16 (≈ 44 µg/mL) | 16 (≈ 44 µg/mL) | 2 (≈ 5.5 µg/mL) | > 128 | 8 (≈ 22 µg/mL) | 16 (≈ 44 µg/mL) | 2 µM (≈ 5.5 µg/mL) | 2 (≈ 5.5 µg/mL) | 32 (≈ 88 µg/mL) | 16 (≈ 44 µg/mL) | – | –
2 | CC[C@H](C)[C@H](NC(=O)[C@H](Cc1c[nH]cn1)NC(=O)[C@H](Cc1c[nH]cn1)NC(=O)[C@H](CC(C)C)NC(=O)[C@@H](NC(=O)[C@H](Cc1c[nH]cn1)NC(=O)[C@H](C)NC(=O)[C@H](C)NC(=O)[C@@H](NC(=O)CNC(=O)[C@H](C)NC(=O)[C@@H](NC(=O)[C@@H](NC(=O)[C@@H]1CCCN1C(=O)[C@H](Cc1ccccc1)NC(=O)[C@@H](N)Cc1ccccc1)[C@@H](C)CC)C(C)C)C(C)C)C(C)C)C(=O)N[C@@H](Cc1ccccc1)C(=O)N[C@H]1CSSC[C@@H](C(=O)O)NC(=O)[C@H](CCCCN)NC(=O)[C@H](CCCCN)NC(=O)[C@H](CO)NC(=O)[C@H]([C@@H](C)CC)NC(=O)[C@H]([C@@H](C)O)NC1=O [brevinin-1pl-3H] (H-FFPIVAGVAAHVLHHIFCTISKKC-OH; disulfide 18-24) | 16 (≈ 42.2 µg/mL) | 64 (≈ 169 µg/mL) | 32 (≈ 84.4 µg/mL) | 64 (≈ 169 µg/mL) | – | 8 (≈ 21.1 µg/mL) | > 128 | 32 (≈ 84.4 µg/mL) | 32 (≈ 84.4 µg/mL) | > 128 | 32 (≈ 84.4 µg/mL) | 64 (≈ 169 µg/mL) | 4/4 µM | 8 (≈ 21.1 µg/mL) | > 128 | 64 (≈ 169 µg/mL) | low cytotoxicity | low hemolytic activity

Stronger by MIC [2], values ahead:

Row | MIC (E. faecium 12697) [µM] | MIC [1] [µM] | MIC [2] [µM] | MIC [3] [µM] | MIC [4] [µM] | MIC [5] [µM] | MIC [6] [µM] | MIC [7] [µM] | SMILES | MBC (E. faecium 12697) [µM] | MBC [1] [µM] | MBC [2] [µM] | MBC [3] [µM] | MBC [4] | MBC [5] [µM] | MBC [6] [µM] | MBC [7] [µM] | Cytotoxicity toward normal HaCaT cells (in words) (HaCaT cells) | Hemolytic activity at 16 μM (in words) (horse erythrocytes)
3 | 4 (≈ 10.4 µg/mL) | > 128 | 4 (≈ 10.4 µg/mL) | 8 (≈ 20.9 µg/mL) | 2 (≈ 5.22 µg/mL) | 2 (≈ 5.22 µg/mL) | 8 (≈ 20.9 µg/mL) | 8 (≈ 20.9 µg/mL) | CC[C@H](C)[C@H](NC(=O)[C@H](CCCCN)NC(=O)[C@H](CCCCN)NC(=O)[C@H](CC(C)C)NC(=O)[C@@H](NC(=O)[C@H](CCCCN)NC(=O)[C@H](C)NC(=O)[C@H](C)NC(=O)[C@@H](NC(=O)CNC(=O)[C@H](C)NC(=O)[C@@H](NC(=O)[C@@H](NC(=O)[C@@H]1CCCN1C(=O)[C@H](Cc1ccccc1)NC(=O)[C@@H](N)Cc1ccccc1)[C@@H](C)CC)C(C)C)C(C)C)C(C)C)C(=O)N[C@@H](Cc1ccccc1)C(=O)N[C@H]1CSSC[C@@H](C(=O)O)NC(=O)[C@H](CCCCN)NC(=O)[C@H](CCCCN)NC(=O)[C@H](CO)NC(=O)[C@H]([C@@H](C)CC)NC(=O)[C@H]([C@@H](C)O)NC1=O [brevinin-1pl] (H-FFPIVAGVAAKVLKKIFCTISKKC-OH; disulfide 18-24) | 4 (≈ 10.4 µg/mL) | > 128 | 4 (≈ 10.4 µg/mL) | 16 (≈ 41.8 µg/mL) | 2 µM (≈ 5.22 µg/mL) | 2 (≈ 5.22 µg/mL) | 16 (≈ 41.8 µg/mL) | 8 (≈ 20.9 µg/mL) | – | –
4 | 16 (≈ 42 µg/mL) | > 128 | 4 (≈ 10.5 µg/mL) | 8 (≈ 21 µg/mL) | 4 (≈ 10.5 µg/mL) | 4 (≈ 10.5 µg/mL) | 16 (≈ 42 µg/mL) | 8 (≈ 21 µg/mL) | CC[C@H](C)[C@H](NC(=O)[C@H](CCCCN)NC(=O)[C@H](CCCCN)NC(=O)[C@H](CC(C)C)NC(=O)[C@@H](NC(=O)[C@H](CCCCN)NC(=O)[C@H](C)NC(=O)[C@H](C)NC(=O)[C@@H](NC(=O)CNC(=O)[C@H](C)NC(=O)[C@@H](NC(=O)[C@H](CCCCN)NC(=O)[C@@H]1CCCN1C(=O)[C@H](Cc1ccccc1)NC(=O)[C@@H](N)Cc1ccccc1)C(C)C)C(C)C)C(C)C)C(=O)N[C@@H](Cc1ccccc1)C(=O)N[C@H]1CSSC[C@@H](C(=O)O)NC(=O)[C@H](CCCCN)NC(=O)[C@H](CCCCN)NC(=O)[C@H](CO)NC(=O)[C@H]([C@@H](C)CC)NC(=O)[C@H]([C@@H](C)O)NC1=O [brevinin-1pl-6K] (H-FFPKVAGVAAKVLKKIFCTISKKC-OH; disulfide 18-24) | 16 (≈ 42 µg/mL) | > 128 | 4 (≈ 10.5 µg/mL) | 8 (≈ 21 µg/mL) | 4 µM (≈ 10.5 µg/mL) | 4 (≈ 10.5 µg/mL) | 16 (≈ 42 µg/mL) | 8 (≈ 21 µg/mL) | – | –
5 | 4 (≈ 10.7 µg/mL) | > 128 | 4 (≈ 10.7 µg/mL) | 8 (≈ 21.3 µg/mL) | 2 (≈ 5.33 µg/mL) | 2 (≈ 5.33 µg/mL) | 8 (≈ 21.3 µg/mL) | 8 (≈ 21.3 µg/mL) | CC[C@H](C)[C@H](NC(=O)[C@H](CCCCN)NC(=O)[C@H](CCCCN)NC(=O)[C@H](CC(C)C)NC(=O)[C@@H](NC(=O)[C@H](CCCCN)NC(=O)[C@H](C)NC(=O)[C@H](C)NC(=O)[C@@H](NC(=O)CNC(=O)[C@H](C)NC(=O)[C@@H](NC(=O)[C@@H](NC(=O)[C@@H]1CCCN1C(=O)[C@H](Cc1ccccc1)NC(=O)[C@@H](N)Cc1ccccc1)[C@@H](C)CC)C(C)C)C(C)C)C(C)C)C(=O)N[C@@H](Cc1ccccc1)C(=O)N[C@H]1CSSC[C@@H](C(=O)O)NC(=O)[C@H](CCCNC(=N)N)NC(=O)[C@H](CCCNC(=N)N)NC(=O)[C@H](CO)NC(=O)[C@H]([C@@H](C)CC)NC(=O)[C@H]([C@@H](C)O)NC1=O [brevinin-1pl-2R] (H-FFPIVAGVAAKVLKKIFCTISRRC-OH; disulfide 18-24) | 4 (≈ 10.7 µg/mL) | > 128 | 4 (≈ 10.7 µg/mL) | 8 (≈ 21.3 µg/mL) | 2 µM (≈ 5.33 µg/mL) | 2 (≈ 5.33 µg/mL) | 16 (≈ 42.7 µg/mL) | 8 (≈ 21.3 µg/mL) | – | –
